One assay relates to PANC-1 cells. Description: Alamar Blue assay with a monolayer cell culture. In kind it is cell-based. To be noted: Homo sapiens, PANC-1 monolayer, 10 μM gemcitabine or equivalent encapsulated, 72 hours. As to the method: (§1) Pancreatic-cancer cell lines PANC-1 and MIAPaCa-2 were obtained from American Type Culture Collection (Manassas, Va.). PANC-1 cells were cultured in RPMI media (without phenol red) that were supplemented with 2% antibiotics (penicillin, streptomycin) and 10% v/v fetal bovine serum. The MIAPaCa-2 cells were cultured in DMEM media that were supplemented with 2% horse serum and 2% antibiotics. All cell lines were grown at 37° C. in a humidified atmosphere containing 5% CO2.
(§2) Cytotoxicity of the encapsulated gemcitabine was measured by treating the PANC-1 and MIAPaCa-2 cells with nanovesicles. The cells were incubated (1,000 per well) in a 96-well plate after trypsinizing the flask and making a cell suspension. RPMI media (100 μL) were added to each well. Cells were allowed to grow for one doubling time. The plate was divided into three groups: control, gemcitabine treated and gemcitabine-encapsulated nanovesicles treated. Six replicates were recorded for each sample. […] The treatment was carried out for 3 days, and cell toxicity was recorded after 72 hours with the Alamar Blue assay by following the supplier's (Life Technologies) protocol. Alamar Blue solution (10 μL) was added to all the wells and incubated for 2 hours, and the absorbance was recorded at 585 nm for cytotoxicity calculation (FIG. 15).
Background: The colour change of resazurin is a common sign of viable cells or microbes.

In another assay the test system is MIAPaCa-2 cells. Description: Alamar Blue assay with a monolayer cell culture. The class given is cell-based. As to conditions: Homo sapiens, MIA PaCa-2, MIAPaCa-2 monolayer, 10 μM gemcitabine or equivalent encapsulated, 72 hours. As to the method: as §1, §2
The target of a further assay is recombinant human MMP-9 (Homo sapiens, UniProt P14780). Description: CD spectroscopy of triple helicity of nanovesicle-incorporated lipopeptide. The class given is biochemical. The text has this: The lipopeptide LP [CH3(CH2)16CONH-[…](GPO)4GG-COOH] was synthesized by employing microwave assisted solid phase peptide synthesizer (Liberty, CEM Corporation, Matthews, S.C.) by following the protocol previously established in our laboratory (Pompella et al., Biochem pharm 2003, 66 (8), 1499-1503). The lipopeptide was purified by reverse phase HPLC (Shimadzu Scientific Instruments) using a diphenyl semi-preparatory column (Grace Vydac, 300 Å pore diameter silica, 5 μm particle size, 10 mm×250 mm) as the stationary phase. A linear gradient (0-70%) of acetonitrile (with 0.1% trifluoroacetic acid) in water (with 0.1% trifluoroacetic acid) was used at a flow rate of 8 mL/min over 60 min. The chromatogram was recorded at 235 nm using a UV detector. After freeze drying the eluents, the peptide was characterized employing MALDI-TOF mass spectrometry with an AB 4800 MALDI TOF/TOF mass analyzer. An observed mass of 2332.3 Da in MALDI spectra confirmed the LP (calculated mass: 2332.2 Da). The collagen mimetic triple helical structure of the lipopeptide was assessed by CD spectrometry employing a Jasco J-815 CD spectrometer with a quartz cuvette of 1 mm path length. The positive peak at 222 nm and the negative peak at 198 nm confirmed the triple helical structure of collagen mimetic peptide.20 For the CD spectroscopic studies, 32 accumulations were recorded for each spectra.

This note sets out measurements from patent publication US9457041B2, “Controlled release nanoparticles and methods of use” (NDSU Research Foundation, priority 2014, dated 2016).

A word on the viability: it is the share of living cells, or the viability signal relative to a control.

Chain of recombinant human MMP-9 (P14780 94-707): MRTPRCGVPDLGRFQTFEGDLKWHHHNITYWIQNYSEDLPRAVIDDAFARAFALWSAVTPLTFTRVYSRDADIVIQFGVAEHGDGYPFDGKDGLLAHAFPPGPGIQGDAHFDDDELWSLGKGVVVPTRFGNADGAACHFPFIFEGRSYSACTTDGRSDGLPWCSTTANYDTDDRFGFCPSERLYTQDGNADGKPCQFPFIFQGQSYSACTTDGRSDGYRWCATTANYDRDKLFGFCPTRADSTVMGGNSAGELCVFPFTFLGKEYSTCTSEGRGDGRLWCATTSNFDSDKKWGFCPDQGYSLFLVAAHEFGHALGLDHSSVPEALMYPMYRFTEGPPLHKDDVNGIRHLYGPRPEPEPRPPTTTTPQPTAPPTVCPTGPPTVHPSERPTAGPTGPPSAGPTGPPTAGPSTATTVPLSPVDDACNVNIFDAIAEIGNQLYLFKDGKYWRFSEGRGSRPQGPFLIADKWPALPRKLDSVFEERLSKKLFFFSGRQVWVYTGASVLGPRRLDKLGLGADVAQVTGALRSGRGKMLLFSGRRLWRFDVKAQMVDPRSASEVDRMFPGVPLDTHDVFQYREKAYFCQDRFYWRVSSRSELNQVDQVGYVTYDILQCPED

On to `Nc1ccn([C@@H]2O[C@H](CO)[C@@H](O)C2(F)F)c(=O)n1` [gemcitabine], for which the viability at 10 µM was 30 to 35% in the assay on PANC-1 cells and 45 to 50% in the assay on MIAPaCa-2 cells.

Turning to “CH3(CH2)16CONH-GPQGIAGQR(GPO)4GG-COOH [LP]”, the “triple helicity of LP (CD)” value on recombinant human MMP-9 (2 μM recombinant human MMP-9, 60 minutes) is reported as “considerably reduced”. Besides, the “triple helicity of nanovesicle-incorporated LP (CD)” value on recombinant human MMP-9 (GSH (50 μM), 1 hour) is given as “unchanged”.
